Tests used:
Butyrylcholinesterase = Butyrylcholinesterase (Rattus norvegicus, UniProt Q9JKC1)
Description: Inhibition of rat serum butyrylcholinesterase, in the presence of a specific AChE inhibitor; BW284c51

Acetylcholinesterase = biological target: T1, Acetylcholinesterase (Rattus norvegicus, UniProt P37136); test: biochemical
T1 sequence (P37136 whole entry): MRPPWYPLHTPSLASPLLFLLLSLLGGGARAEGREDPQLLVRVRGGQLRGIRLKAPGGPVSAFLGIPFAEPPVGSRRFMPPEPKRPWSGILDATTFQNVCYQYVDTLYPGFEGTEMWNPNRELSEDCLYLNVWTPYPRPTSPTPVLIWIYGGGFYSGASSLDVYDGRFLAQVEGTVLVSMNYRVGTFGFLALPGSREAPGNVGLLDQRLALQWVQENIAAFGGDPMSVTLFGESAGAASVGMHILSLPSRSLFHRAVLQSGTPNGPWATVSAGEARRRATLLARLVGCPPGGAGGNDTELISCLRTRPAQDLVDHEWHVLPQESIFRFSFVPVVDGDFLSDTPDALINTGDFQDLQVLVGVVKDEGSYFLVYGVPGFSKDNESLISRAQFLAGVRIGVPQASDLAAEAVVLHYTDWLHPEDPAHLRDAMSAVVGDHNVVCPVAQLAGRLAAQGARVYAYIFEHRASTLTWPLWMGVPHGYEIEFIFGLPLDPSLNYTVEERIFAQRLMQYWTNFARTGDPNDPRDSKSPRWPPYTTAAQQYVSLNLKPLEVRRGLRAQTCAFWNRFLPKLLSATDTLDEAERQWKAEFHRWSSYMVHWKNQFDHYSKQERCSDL
Description: Inhibition of acetylcholinesterase activity in rat cerebral cortex homogenate, in the presence of a specific butyrylcholinesterase (BChE) inhibitor; ethopropazine

Butyrylcholinesterase, sequence (Q9JKC1 whole entry): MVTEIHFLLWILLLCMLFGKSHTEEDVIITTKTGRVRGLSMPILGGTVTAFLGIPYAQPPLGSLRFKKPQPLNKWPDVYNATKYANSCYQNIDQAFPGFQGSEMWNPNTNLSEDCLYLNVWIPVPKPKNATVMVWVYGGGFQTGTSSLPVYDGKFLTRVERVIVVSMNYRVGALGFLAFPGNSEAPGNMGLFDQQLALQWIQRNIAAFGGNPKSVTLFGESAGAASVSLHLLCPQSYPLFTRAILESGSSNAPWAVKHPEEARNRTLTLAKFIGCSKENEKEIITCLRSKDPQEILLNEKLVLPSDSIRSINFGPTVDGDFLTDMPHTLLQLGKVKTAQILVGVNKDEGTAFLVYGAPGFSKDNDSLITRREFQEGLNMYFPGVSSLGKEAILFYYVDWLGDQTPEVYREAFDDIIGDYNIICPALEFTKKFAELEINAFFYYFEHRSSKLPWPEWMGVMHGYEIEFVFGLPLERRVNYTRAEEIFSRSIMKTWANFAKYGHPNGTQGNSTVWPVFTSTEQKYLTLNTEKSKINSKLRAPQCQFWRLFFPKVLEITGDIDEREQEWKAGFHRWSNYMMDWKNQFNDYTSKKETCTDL

Structure (SMILES) | IC50 (Butyrylcholinesterase) [µM] | IC50 (Acetylcholinesterase) [µM]
CN(C)CCCCCCCCCCCCNc1c2c(nc3ccccc13)CCCC2 | 0.695 | 0.264
CN(C)CCCCCCCCCCNc1c2c(nc3ccccc13)CCCC2 | 0.581 | 0.045
NCCCCCCCNc1c2c(nc3ccccc13)CCCC2 | 0.357 | 0.319
NCCCCCCCCCCNc1c2c(nc3ccccc13)CCCC2 | 0.682 | 0.147
CN(C)CCCCCCCCNc1c2c(nc3ccccc13)CCCC2 | 0.17 | 0.047
c1ccc2c(NCCCCCCCNc3ccncc3)c3c(nc2c1)CCCC3 | 0.302 | 0.0128
c1ccc2c(NCCCCCCCCNc3c4c(nc5ccccc35)CCCC4)ccnc2c1 | 0.126 | 0.0088
CN(C)CCCCCCCCCNc1c2c(nc3ccccc13)CCCC2 | 0.237 | 0.071
c1ccc2c(NCCCCCCCCCCCCNc3ccncc3)c3c(nc2c1)CCCC3 | 0.377 | 0.261
CN(C)CCCCCCCNc1c2c(nc3ccccc13)CCCC2 | 0.143 | 0.052
c1ccc2c(NCCCCCCCCCNc3ccncc3)c3c(nc2c1)CCCC3 | 0.2 | 0.0836
c1ccc2c(NCCCCCCCCNc3ccncc3)c3c(nc2c1)CCCC3 | 0.157 | 0.0136
c1ccc2c(NCCCCCCCCCCNc3ccncc3)c3c(nc2c1)CCCC3 | 0.427 | 0.176
c1ccc2c(NCCCCCCCCCNc3c4c(nc5ccccc35)CCCC4)ccnc2c1 | 0.156 | 0.0387
NCCCCCCCCCCCCNc1c2c(nc3ccccc13)CCCC2 | 0.791 | 0.18
NCCCCCCCCNc1c2c(nc3ccccc13)CCCC2 | 0.202 | 0.0894
c1ccc2c(NCCCCCCCNc3c4c(nc5ccccc35)CCCC4)ccnc2c1 | 0.11 | 0.0101
NCCCCCCCCCNc1c2c(nc3ccccc13)CCCC2 | 0.687 | 0.131
Cc1cccc2c(NCCCCCCCNc3c4c(nc5ccccc35)CCCC4)c3c(nc12)CCCC3 |  | 0.0015
Cc1cccc2c(NCCCCCCCCNc3c4c(nc5ccccc35)CCCC4)c3c(nc12)CCCC3 | 0.105 | 0.0078
Nc1ccncc1 [DALFAMPRIDINE] |  | > 500
Nc1ccnc2ccccc12 [QUINOLIN-4-AMINE] |  | 50.7

— ChEMBL document CHEMBL1132438, “Heterodimeric tacrine-based acetylcholinesterase inhibitors: investigating ligand-peripheral site interactions” (J Med Chem, 1999)
